One data set concerns the target Cytochrome P450 2C9 (Homo sapiens, UniProt P11712). To be noted: bti-tn-5b1-4. Note: in other assays of this panel Not Active means under 50% inhibition at 10 µM.
In data set [1] the target is T1, 5-hydroxytryptamine receptor 1A (Rattus norvegicus, UniProt P19327). Note: in other assays of this panel Not Active means under 50% inhibition at 10 µM.
T1 sequence (P19327 whole entry): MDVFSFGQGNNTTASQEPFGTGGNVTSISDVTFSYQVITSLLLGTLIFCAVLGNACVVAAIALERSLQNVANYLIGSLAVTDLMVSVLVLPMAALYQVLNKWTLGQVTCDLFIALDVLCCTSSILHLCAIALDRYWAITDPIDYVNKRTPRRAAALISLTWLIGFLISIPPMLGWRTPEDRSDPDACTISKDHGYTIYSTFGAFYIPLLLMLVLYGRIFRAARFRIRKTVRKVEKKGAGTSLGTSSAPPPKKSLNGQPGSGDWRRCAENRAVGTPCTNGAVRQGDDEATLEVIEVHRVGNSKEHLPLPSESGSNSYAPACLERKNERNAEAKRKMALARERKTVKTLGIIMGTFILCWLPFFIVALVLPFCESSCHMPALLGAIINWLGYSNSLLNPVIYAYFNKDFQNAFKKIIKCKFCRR
In kind it is cell membranes, CHO-K1, Membrane.

A short description of data set [2]: DRUGMATRIX: Sodium/nucleoside co-transporter radioligand binding (ligand: nitrobenzylthioinosine). Type of data set: cell membranes, Cavia porcellus, Dunkin-Hartley, Cerebral cortex, Membrane. Particulars: Not Active = under 50% inhibition at 10 µM.
Data set [3] has as its target Aldo-keto reductase family 1 member B1 (Rattus norvegicus, UniProt P07943). The data set can be described thus: biochemical. Type of data set: tissue-based, Lens of camera-type eye.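 Note: inhibition of aldose reductase enzyme activity, measured with DL-glyceraldehyde as the substrate; in other assays of this panel Not Active means under 50% inhibition at 10 µM.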
The next data set has as its target Estrogen receptor beta (Homo sapiens, UniProt Q92731). Particulars: sf9. Note: in other assays of this panel Not Active means under 50% inhibition at 10 µM.
For a further data set, the target named is Histamine H2 receptor (Homo sapiens, UniProt P25021). In kind it is cell membranes, CHO-K1, Membrane. Note: in other assays of this panel Not Active means under 50% inhibition at 10 µM.
Sequence of Histamine H2 receptor (P25021 whole entry): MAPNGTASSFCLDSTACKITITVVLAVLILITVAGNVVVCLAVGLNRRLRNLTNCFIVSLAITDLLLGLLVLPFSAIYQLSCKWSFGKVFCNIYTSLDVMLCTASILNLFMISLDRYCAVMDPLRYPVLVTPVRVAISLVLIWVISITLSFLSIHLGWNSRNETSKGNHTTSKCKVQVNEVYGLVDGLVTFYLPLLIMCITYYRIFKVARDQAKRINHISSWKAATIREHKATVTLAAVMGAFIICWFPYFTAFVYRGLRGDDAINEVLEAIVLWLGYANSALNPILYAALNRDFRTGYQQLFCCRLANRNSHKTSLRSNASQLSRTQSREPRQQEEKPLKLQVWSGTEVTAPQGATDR

Sequence of Cytochrome P450 2C9 (P11712 whole entry): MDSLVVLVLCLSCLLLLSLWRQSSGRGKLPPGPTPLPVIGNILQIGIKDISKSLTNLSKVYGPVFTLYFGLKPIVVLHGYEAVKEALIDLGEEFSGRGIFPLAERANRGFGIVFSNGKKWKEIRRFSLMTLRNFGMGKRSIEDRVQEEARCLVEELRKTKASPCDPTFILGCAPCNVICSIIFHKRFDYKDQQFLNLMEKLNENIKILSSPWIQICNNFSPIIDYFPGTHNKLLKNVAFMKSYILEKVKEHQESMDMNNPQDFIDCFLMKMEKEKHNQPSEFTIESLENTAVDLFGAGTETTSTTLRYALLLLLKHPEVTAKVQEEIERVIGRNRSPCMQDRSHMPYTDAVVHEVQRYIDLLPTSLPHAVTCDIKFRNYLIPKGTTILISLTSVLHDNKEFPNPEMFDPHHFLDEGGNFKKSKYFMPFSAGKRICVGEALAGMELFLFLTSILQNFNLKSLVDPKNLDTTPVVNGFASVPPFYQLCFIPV
Sequence of Estrogen receptor beta (Q92731 whole entry): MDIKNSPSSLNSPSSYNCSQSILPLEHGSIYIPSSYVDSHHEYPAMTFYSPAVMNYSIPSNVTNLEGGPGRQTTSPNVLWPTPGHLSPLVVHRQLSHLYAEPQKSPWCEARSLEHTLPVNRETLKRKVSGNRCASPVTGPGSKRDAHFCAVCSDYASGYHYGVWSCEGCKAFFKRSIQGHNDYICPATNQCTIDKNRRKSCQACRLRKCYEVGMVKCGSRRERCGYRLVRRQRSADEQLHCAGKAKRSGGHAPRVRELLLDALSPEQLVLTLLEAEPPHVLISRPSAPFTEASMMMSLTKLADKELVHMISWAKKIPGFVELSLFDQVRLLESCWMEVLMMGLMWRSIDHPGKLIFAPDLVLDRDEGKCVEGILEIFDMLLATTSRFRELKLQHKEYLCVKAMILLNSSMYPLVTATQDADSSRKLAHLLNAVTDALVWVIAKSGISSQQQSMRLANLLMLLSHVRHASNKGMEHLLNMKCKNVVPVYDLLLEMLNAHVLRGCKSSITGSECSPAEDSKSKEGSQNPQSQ

On to `CNS(=O)(=O)Cc1ccc2[nH]cc(CCN(C)C)c2c1`, for which the concentration for half-maximal inhibition (IC50) entry was “Not Active” on Cytochrome P450 2C9; 804 nM in data set [1] (read-out: IC50); “Not Active” in data set [2]; “Not Active” in data set [3]; “Not Active” against Estrogen receptor beta; “Not Active” at Histamine H2 receptor (cho-k1). For the same compound, the Ki entry on Cytochrome P450 2C9 was “Not Active”; in data set [1] (read-out: Ki), 459 nM; in data set [2], “Not Active”.
With `COc1ccc(/C=C/C(=O)Nc2ccccc2C(=O)O)cc1OC`, the IC50 entry (against Cytochrome P450 2C9; in data set [1] (cho-k1); in data set [2]; in data set [3]; against Estrogen receptor beta; against Histamine H2 receptor (cho-k1)) was “Not Active” throughout. Besides, the Ki result (at Cytochrome P450 2C9; in data set [2]) was “Not Active” each time.
For `CC1=C(CC(=O)O)c2cc(F)ccc2/C1=C\c1ccc(S(C)(=O)=O)cc1` [EXISULIND], the IC50 entry was “Not Active” at Cytochrome P450 2C9; “Not Active” in data set [1] (cho-k1); “Not Active” in data set [2]; 269 nM in data set [3] (read-out: IC50); “Not Active” on Estrogen receptor beta; “Not Active” at Histamine H2 receptor (cho-k1). Also, the Ki entry (on Cytochrome P450 2C9; in data set [2]) was “Not Active” each time.
For the compound `CN1C2CCCC1CC(NC(=O)c1nn(C)c3ccccc13)C2` (stereo not drawn) [GRANISETRON], the IC50 entry (against Cytochrome P450 2C9; in data set [1] (cho-k1); in data set [3]; at Estrogen receptor beta; on Histamine H2 receptor (cho-k1)) was “Not Active” in each case. Besides, the Ki result on Cytochrome P450 2C9 is given as “Not Active”.
Turning to `Nc1nc2c(c(=O)[nH]1)N(C=O)C(CNc1ccc(C(=O)N[C@@H](CCC(=O)O)C(=O)O)cc1)CN2` (stereo partly drawn) [LEUCOVORIN], the IC50 entry (against Cytochrome P450 2C9; in data set [1] (cho-k1); in data set [2]; in data set [3]; on Estrogen receptor beta; on Histamine H2 receptor (cho-k1)) was “Not Active” throughout. Besides, the Ki result (on Cytochrome P450 2C9; in data set [2]) was “Not Active” in each case.
As for `C[C@@H](O)[C@H]1C(=O)N2C(C(=O)O)=C(S[C@@H]3CN[C@H](C(=O)N(C)C)C3)[C@H](C)[C@H]12` [MEROPENEM], the IC50 result (on Cytochrome P450 2C9; in data set [1] (cho-k1); in data set [2]; in data set [3]; against Estrogen receptor beta; on Histamine H2 receptor (cho-k1)) was “Not Active” each time. The Ki result (on Cytochrome P450 2C9; in data set [2]) was “Not Active” each time.
With `CC[C@@H](CO)NC(=O)[C@@H]1C=C2c3cccc4c3c(cn4C)C[C@H]2N(C)C1` [METHYSERGIDE], the IC50 result against Cytochrome P450 2C9 is “Not Active”; in data set [1] (read-out: IC50), 54 nM; in data set [3] it was “Not Active”; against Estrogen receptor beta, “Not Active”; at Histamine H2 receptor (cho-k1), “Not Active”. Also, the values for the Ki entry (on Cytochrome P450 2C9; in data set [1] (read-out: Ki)) were “Not Active” and 31 nM, respectively.
As to `CCN(CC)CC#CCOC(=O)C(O)(c1ccccc1)C1CCCCC1` (stereo not drawn) [OXYBUTYNIN], the IC50 result (against Cytochrome P450 2C9; in data set [1] (cho-k1); in data set [3]; against Estrogen receptor beta; against Histamine H2 receptor (cho-k1)) was “Not Active” in each case. Moreover, the Ki result on Cytochrome P450 2C9 is reported as “Not Active”.
As for `CN(CCOc1ccc(CC2SC(=O)NC2=O)cc1)c1ccccn1` (stereo not drawn) [ROSIGLITAZONE], the IC50 entry (against Cytochrome P450 2C9; in data set [1] (cho-k1); in data set [2]; in data set [3]; on Estrogen receptor beta; against Histamine H2 receptor (cho-k1)) was “Not Active” throughout. Also, the Ki result (on Cytochrome P450 2C9; in data set [2]) was “Not Active” throughout.
Consider `C#CCN(C)[C@H](C)Cc1ccccc1` [SELEGILINE], for which the IC50 entry (against Cytochrome P450 2C9; in data set [1] (cho-k1); in data set [2]; in data set [3]; against Estrogen receptor beta; against Histamine H2 receptor (cho-k1)) was “Not Active” throughout. Further, the Ki entry (at Cytochrome P450 2C9; in data set [2]) was “Not Active” in each case.
`Nc1ccc(S(=O)(=O)Nc2ncccn2)cc1` [SULFADIAZINE]: the IC50 result (against Cytochrome P450 2C9; in data set [1] (cho-k1); in data set [2]; in data set [3]; on Estrogen receptor beta; against Histamine H2 receptor (cho-k1)) was “Not Active” in each case. The Ki result (on Cytochrome P450 2C9; in data set [2]) was “Not Active” each time.
With `COc1ncnc(NS(=O)(=O)c2ccc(N)cc2)c1OC` [SULFADOXINE], the half-maximal inhibitory concentration (IC50) result (at Cytochrome P450 2C9; in data set [1] (cho-k1); in data set [2]; in data set [3]; at Estrogen receptor beta; against Histamine H2 receptor (cho-k1)) was “Not Active” in each case. For the same compound, the Ki result (on Cytochrome P450 2C9; in data set [2]) was “Not Active” each time.
On to `C[C@@H]1C[C@H]2[C@@H]3CCC4=CC(=O)C=C[C@]4(C)C3=CC[C@]2(C)[C@H]1C(=O)CN1CCN(c2cc(N3CCCC3)nc(N3CCCC3)n2)CC1` [TIRILAZAD], for which the half-maximal inhibitory concentration (IC50) result is “Not Active” at Cytochrome P450 2C9; “Not Active” in data set [1] (cho-k1); “Not Active” in data set [2]; “Not Active” in data set [3]; “Not Active” against Estrogen receptor beta; 14100 nM at Histamine H2 receptor (read-out: IC50). Further, the Ki entry on Cytochrome P450 2C9 is “Not Active”; in data set [2] it was “Not Active”; on Histamine H2 receptor (read-out: Ki), 13900 nM.
On to `NC[C@H]1O[C@H](O[C@H]2[C@H](O)[C@@H](O[C@H]3O[C@H](CO)[C@@H](O)[C@H](N)[C@H]3O)[C@H](N)C[C@@H]2N)[C@H](N)C[C@@H]1O` [TOBRAMYCIN], for which the IC50 result (against Cytochrome P450 2C9; in data set [1] (cho-k1); in data set [2]; in data set [3]; against Estrogen receptor beta; at Histamine H2 receptor (cho-k1)) was “Not Active” each time. The Ki entry (on Cytochrome P450 2C9; in data set [2]) was “Not Active” each time.
Take STANNOUS FLUORIDE: the IC50 entry (at Cytochrome P450 2C9; in data set [1] (cho-k1); in data set [2]; in data set [3]; against Estrogen receptor beta; against Histamine H2 receptor (cho-k1)) was “Not Active” throughout. The Ki result (on Cytochrome P450 2C9; in data set [1] (cho-k1); in data set [2]; in data set [3]; at Estrogen receptor beta; on Histamine H2 receptor (cho-k1)) was “Not Active” each time.
Regarding THIMEROSAL, the IC50 entry (against Cytochrome P450 2C9; in data set [1] (cho-k1); in data set [2]; in data set [3]; against Estrogen receptor beta; at Histamine H2 receptor (cho-k1)) was “Not Active” in each case. Moreover, the Ki entry (on Cytochrome P450 2C9; in data set [1] (cho-k1); in data set [2]; in data set [3]; at Estrogen receptor beta; on Histamine H2 receptor (cho-k1)) was “Not Active” each time.

By IC50 is commonly meant the point on the concentration scale where inhibition reaches its midpoint. For orientation: Ki means the dissociation constant of the complex between target and ligand, obtained from inhibition or displacement.

The record behind these values is ChEMBL document CHEMBL1909046, “DrugMatrix in vitro pharmacology data”.
